For experiment [1], the system named is Rattus norvegicus. Kind of experiment: Antidiabetic activity in Rattus norvegicus albino (rat) assessed as inhibition in rise of blood glucose level at 20 mg/kg, po administered 30 min prior to glucose challenge measured post 60 min of challenge by oral glucose tolerance test relative to control. It is filed as functional.
Experiment [2] has as its system Rattus norvegicus. Kind of experiment: Antidiabetic activity in overnight fastedRattus norvegicus albino (rat) assessed as reduction in blood glucose level at 20 mg/kg, po measured after 60 min by oral glucose tolerance test relative to control (reference value: 78.0 +/- 1.167 mg/dl). The class given is functional.

SMILES strings stand for the structures. The source made the active and inactive calls. The calls are words filed in the database; no cut-off is given here.

For `COc1ccc(C2=NN(c3ccc(S(=O)(=O)NC(=O)NCc4ccccc4)cc3)C(=O)CC2)cc1`, the inhibition in vivo at 20 mg/kg in the experiment with Rattus norvegicus [1] is 41.4%. As for `Cc1ccc(S(=O)(=O)NC(=O)NN2CC3CCCC3C2)cc1` (stereo not drawn) [GLICLAZIDE], the Activity with Rattus norvegicus [2] was 58.2 mg/dL. Moreover, the inhibition in vivo at 20 mg/kg with Rattus norvegicus [1] is 61.4%.

`Cc1ccc(C2=NN(c3ccc(S(=O)(=O)NC(=O)NCc4ccccc4)cc3)C(=O)CC2)c(C)c1`: the inhibition in vivo at 20 mg/kg with Rattus norvegicus [1] is 6.5%. As to `CCc1ccc(C2=NN(c3ccc(S(=O)(=O)NC(=O)NCc4ccccc4)cc3)C(=O)CC2)cc1`, in the experiment on Rattus norvegicus [2], the Activity came out at 62 mg/dL. For the same compound, in the experiment on Rattus norvegicus [1], the inhibition in vivo at 20 mg/kg was 86.9%. Regarding `Cc1ccc(C2=NN(c3ccc(S(=O)(=O)NC(=O)NCc4ccccc4)cc3)C(=O)CC2)cc1`, the inhibition entry in the experiment with Rattus norvegicus [1] was “inactive”. On the same count and under the same terms, then `O=C(NCc1ccccc1)NS(=O)(=O)c1ccc(N2N=C(c3ccc(Oc4ccccc4)cc3)CCC2=O)cc1`, with “inactive”.

A word on the inhibition in vivo: it is the relative decrease from the control value, in per cent.
